In US20230085307A1, “PYRIDAZINONE COMPOUND AND HERBICIDE” (NISSAN CHEMICAL CORPORATION, priority 2019, published 2023):

How the values were obtained:
late watergrass = test: Test Example 1: herbicidal activity, application before weed generation under submerged conditions (Table 16, symbol A); type: in vivo, late watergrass (Echinochloa oryzicola); details: 320 g/ha applied herbicide
Summary of the method: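 Alluvial soil was flooded to 4 cm depth, weed seeds were sown mixed and 2.5-leaf rice seedlings were transplanted. On sowing day, the compound's emulsion, diluted in water to a set dose, was applied to the water surface. Plants grew at 25–30 °C and were scored 0–5 after three weeks.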

Japanese bulrush = test: Test Example 2: herbicidal activity, application during weed generation under submerged conditions (Table 17, symbol B); type: in vivo, Japanese bulrush (Schoenoplectus juncoides); details: AAH 320 g/ha; application during weed generation, submerged conditions
Summary of the method: (§1)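 In this pot test, flooded alluvial soil (water depth 4 cm) holds all three species sown as a mixture. Once seedlings have one to two leaves, the compound's emulsion, thinned with water to the intended dose, is poured on the water; grading follows after three weeks on the earlier criteria.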

oval-leafed pondweed = test: Test Example 2: herbicidal activity, application during weed generation under submerged conditions (Table 17, symbol C); type: in vivo, oval-leafed pondweed (Monochoria vaginalis); details: AAH 320 g/ha; application during weed generation, submerged conditions
Summary of the method: as §1

southern crabgrass [1] = test: Test Example 4: herbicidal effect by soil treatment (Table 19, symbol F); type: in vivo, southern crabgrass (Digitaria ciliaris); details: amount of applied herbicide 320 g/ha
Summary of the method: (§2)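 Three weeks of greenhouse growth at 25° C. to 30° C. followed a uniform surface spray of water-diluted emulsion at a predetermined herbicide amount. Seeds had been sown beforehand under about 1.5 cm of sterilized diluvial soil. Grading followed criteria set out in an earlier test.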

green foxtail = test: Test Example 4: herbicidal effect by soil treatment (Table 19, symbol G); type: in vivo, green foxtail (Setaria viridis); details: amount of applied herbicide 320 g/ha
Summary of the method: as §2

blackgrass = test: Test Example 4: herbicidal effect by soil treatment (Table 19, symbol J); type: in vivo, blackgrass (Alopecurus myosuroides); details: amount of applied herbicide 320 g/ha
Summary of the method: as §2

Italian ryegrass [2] = test: Test Example 4: herbicidal effect by soil treatment (Table 19, symbol K); type: in vivo, Italian ryegrass (Lolium multiflorum); details: amount of applied herbicide 320 g/ha
Summary of the method: as §2

redroot pigweed [3] = test: Test Example 4: herbicidal effect by soil treatment (Table 19, symbol N); type: in vivo, redroot pigweed (Amaranthus retroflexus); details: amount of applied herbicide 320 g/ha
Summary of the method: as §2

chickweed = test: Test Example 4: herbicidal effect by soil treatment (Table 19, symbol P); type: in vivo, common chickweed (Stellaria media); details: amount of applied herbicide 320 g/ha
Summary of the method: as §2

persian speedwell [4] = test: Test Example 4: herbicidal effect by soil treatment (Table 19, symbol R); type: in vivo, Persian speedwell (Veronica persica); details: amount of applied herbicide 320 g/ha
Summary of the method: as §2

southern crabgrass [5] = test: Test Example 5: herbicidal effect by foliage application, plastic box (Table 20, symbol F); type: in vivo, southern crabgrass (Digitaria ciliaris); details: foliage application, AAH 320 g/ha, evaluated three weeks after application
Summary of the method: (§3)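 Plants sown in sterilized diluvial soil and grown 14 days in a greenhouse at 25° C to 30° C, then sprayed on the foliage with the compound's emulsion diluted in water to a predetermined herbicide amount. Injury to weeds and crops scored three weeks after application on a visual rating scale.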

barnyard grass = test: Test Example 5: herbicidal effect by foliage application, plastic box (Table 20, symbol H); type: in vivo, barnyard grass (Echinochloa crus-galli); details: foliage application, AAH 320 g/ha, evaluated three weeks after application
Summary of the method: as §3

Italian ryegrass [6] = test: Test Example 5: herbicidal effect by foliage application, plastic box (Table 20, symbol K); type: in vivo, Italian ryegrass (Lolium multiflorum); details: foliage application, AAH 320 g/ha, evaluated three weeks after application
Summary of the method: as §3

redroot pigweed [7] = test: Test Example 5: herbicidal effect by foliage application, plastic box (Table 20, symbol N); type: in vivo, redroot pigweed (Amaranthus retroflexus); details: foliage application, AAH 320 g/ha, evaluated three weeks after application
Summary of the method: as §3

lambsquarters = test: Test Example 5: herbicidal effect by foliage application, plastic box (Table 20, symbol O); type: in vivo, lambsquarters (Chenopodium album); details: foliage application, AAH 320 g/ha, evaluated three weeks after application
Summary of the method: as §3

persian speedwell [8] = test: Test Example 5: herbicidal effect by foliage application, plastic box (Table 20, symbol R); type: in vivo, Persian speedwell (Veronica persica); details: foliage application, AAH 320 g/ha, evaluated three weeks after application
Summary of the method: as §3

SMILES | Herbicidal effect on A: late watergrass (grade 0-5) (late watergrass) | herbicidal effect rating, B: Japanese bulrush (Japanese bulrush) | herbicidal effect rating, C: oval-leafed pondweed (oval-leafed pondweed) | herbicidal effect on F: southern crabgrass (southern crabgrass [1]) | herbicidal effect on G: green foxtail (green foxtail) | herbicidal effect on J: blackgrass (blackgrass) | herbicidal effect on K: Italian ryegrass (Italian ryegrass [2]) | herbicidal effect on N: redroot pigweed (redroot pigweed [3]) | herbicidal effect on P: chickweed (chickweed) | herbicidal effect on R: persian speedwell (persian speedwell [4]) | F: southern crabgrass, herbicidal effect (criteria 0-5) (southern crabgrass [5]) | H: barnyard grass, herbicidal effect (criteria 0-5) (barnyard grass) | K: Italian ryegrass, herbicidal effect (criteria 0-5) (Italian ryegrass [6]) | N: redroot pigweed, herbicidal effect (criteria 0-5) (redroot pigweed [7]) | O: lambsquarters, herbicidal effect (criteria 0-5) (lambsquarters) | R: persian speedwell, herbicidal effect (criteria 0-5) (persian speedwell [8])
Cc1nn(C)c(=O)c(-c2c(-c3ccc(SC4CC4)cc3)sc3ccc(F)cc23)c1O [2-254] | 5 (Herbicidal rate of 90% or more (almost completely withered)) | 0 (Herbicidal rate of 5% or less (almost no effect)) | 0 (Herbicidal rate of 5% or less (almost no effect)) | 5 (Herbicidal rate of 90% or more (almost completely withered)) | 5 (Herbicidal rate of 90% or more (almost completely withered)) | 4 (Herbicidal rate of 70% or more and less than 90%) | 5 (Herbicidal rate of 90% or more (almost completely withered)) | 5 (Herbicidal rate of 90% or more (almost completely withered)) | 4 (Herbicidal rate of 70% or more and less than 90%) | 5 (Herbicidal rate of 90% or more (almost completely withered)) | 5 (Herbicidal rate of 90% or more (almost completely withered)) | 5 (Herbicidal rate of 90% or more (almost completely withered)) | 5 (Herbicidal rate of 90% or more (almost completely withered)) | 5 (Herbicidal rate of 90% or more (almost completely withered)) | 5 (Herbicidal rate of 90% or more (almost completely withered)) | 5 (Herbicidal rate of 90% or more (almost completely withered))
Cc1nn(C)c(=O)c(-c2c(-c3ccc([S+]([O-])C(C)C)cc3)sc3ccc(F)cc23)c1O (centres unmarked) [2-257] | 1 (Herbicidal rate of 5% or more and less than 20%) | 0 (Herbicidal rate of 5% or less (almost no effect)) | 0 (Herbicidal rate of 5% or less (almost no effect)) | 3 (Herbicidal rate of 40% or more and less than 70%) | 2 (Herbicidal rate of 20% or more and less than 40%) | 1 (Herbicidal rate of 5% or more and less than 20%) | 3 (Herbicidal rate of 40% or more and less than 70%) | 5 (Herbicidal rate of 90% or more (almost completely withered)) | 4 (Herbicidal rate of 70% or more and less than 90%) | 5 (Herbicidal rate of 90% or more (almost completely withered)) | 3 (Herbicidal rate of 40% or more and less than 70%) | 5 (Herbicidal rate of 90% or more (almost completely withered)) | 5 (Herbicidal rate of 90% or more (almost completely withered)) | 5 (Herbicidal rate of 90% or more (almost completely withered)) | 5 (Herbicidal rate of 90% or more (almost completely withered)) | 5 (Herbicidal rate of 90% or more (almost completely withered))
Cc1nn(C)c(=O)c(-c2c(-c3ccc(S(C)(=O)=O)cc3)sc3ccc(F)cc23)c1O [2-258] | 5 (Herbicidal rate of 90% or more (almost completely withered)) | 0 (Herbicidal rate of 5% or less (almost no effect)) | 3 (Herbicidal rate of 40% or more and less than 70%) | 4 (Herbicidal rate of 70% or more and less than 90%) | 5 (Herbicidal rate of 90% or more (almost completely withered)) | 5 (Herbicidal rate of 90% or more (almost completely withered)) | 5 (Herbicidal rate of 90% or more (almost completely withered)) | 4 (Herbicidal rate of 70% or more and less than 90%) | 4 (Herbicidal rate of 70% or more and less than 90%) | 5 (Herbicidal rate of 90% or more (almost completely withered)) | 5 (Herbicidal rate of 90% or more (almost completely withered)) | 5 (Herbicidal rate of 90% or more (almost completely withered)) | 5 (Herbicidal rate of 90% or more (almost completely withered)) | 5 (Herbicidal rate of 90% or more (almost completely withered)) | 5 (Herbicidal rate of 90% or more (almost completely withered)) | 5 (Herbicidal rate of 90% or more (almost completely withered))
COCC(=O)Oc1c(C)nn(C)c(=O)c1-c1c(-c2ccc(OC(F)F)cc2)sc2ccc(F)cc12 [2-283] | 3 (Herbicidal rate of 40% or more and less than 70%) | 3 (Herbicidal rate of 40% or more and less than 70%) | 4 (Herbicidal rate of 70% or more and less than 90%) | 5 (Herbicidal rate of 90% or more (almost completely withered)) | 5 (Herbicidal rate of 90% or more (almost completely withered)) | 3 (Herbicidal rate of 40% or more and less than 70%) | 5 (Herbicidal rate of 90% or more (almost completely withered)) | 5 (Herbicidal rate of 90% or more (almost completely withered)) | 4 (Herbicidal rate of 70% or more and less than 90%) | 5 (Herbicidal rate of 90% or more (almost completely withered)) | 5 (Herbicidal rate of 90% or more (almost completely withered)) | 5 (Herbicidal rate of 90% or more (almost completely withered)) | 5 (Herbicidal rate of 90% or more (almost completely withered)) | 5 (Herbicidal rate of 90% or more (almost completely withered)) | 5 (Herbicidal rate of 90% or more (almost completely withered)) | 5 (Herbicidal rate of 90% or more (almost completely withered))
Cc1nn(C)c(=O)c(-c2c(-c3ccc(OC(F)F)cc3)sc3ccc(F)cc23)c1OC(=O)c1ccc(Cl)cc1 [2-286] | 5 (Herbicidal rate of 90% or more (almost completely withered)) | 3 (Herbicidal rate of 40% or more and less than 70%) | 3 (Herbicidal rate of 40% or more and less than 70%) | 0 (Herbicidal rate of 5% or less (almost no effect)) | 3 (Herbicidal rate of 40% or more and less than 70%) | 0 (Herbicidal rate of 5% or less (almost no effect)) | 5 (Herbicidal rate of 90% or more (almost completely withered)) | 4 (Herbicidal rate of 70% or more and less than 90%) | 0 (Herbicidal rate of 5% or less (almost no effect)) | 3 (Herbicidal rate of 40% or more and less than 70%) | 2 (Herbicidal rate of 20% or more and less than 40%) | 5 (Herbicidal rate of 90% or more (almost completely withered)) | 5 (Herbicidal rate of 90% or more (almost completely withered)) | 5 (Herbicidal rate of 90% or more (almost completely withered)) | 5 (Herbicidal rate of 90% or more (almost completely withered)) | 5 (Herbicidal rate of 90% or more (almost completely withered))
